Experimental data published in PubChem BioAssay AID330 (DTP/NCI, 2004).
Values joined by “and” are separate entries in the source; they are usually repeats but may differ in a detail not shown here. Equal values may be shown once. Inconclusive results and toxic doses are left out.

Tested on: P388 leukemia ip, CD2F1 mice, survival T/C
Test: NCI In Vivo Anticancer Drug Screen. Data for tumor model P388 Leukemia (intraperitoneal) in CD2F1 (CDF1) mice
Conditions: endpoint: median survival time, higher = longer survival
Outline: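 Mice carrying the transplanted tumor received test compound or vehicle. Survival was recorded in each group, and the value is the treated-group measurement divided by that of the vehicle-treated control group.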

[1] = dose: 60.0 mg/kg/injection, schedule: Q01DX005 (ip), vehicle: saline with Tween-80
[2] = dose: 7.5 mg/kg/injection, schedule: Q01DX005 (ip), vehicle: saline with Tween-80
[3] = dose: 15.0 mg/kg/injection, schedule: Q01DX005 (ip), vehicle: saline with Tween-80
[4] = dose: 50.0 mg/kg/injection, schedule: Q01DX005 (ip), vehicle: saline with Tween-80
[5] = dose: 50.0 mg/kg/injection, schedule: Q01DX009 (ip), vehicle: saline with Tween-80
[6] = dose: 100.0 mg/kg/injection, schedule: Q01DX005 (ip), vehicle: saline with Tween-80
[7] = dose: 200.0 mg/kg/injection, schedule: Q01DX005 (ip), vehicle: saline with Tween-80
[8] = dose: 50.0 mg/kg/injection, schedule: Q01DX009 (ip), vehicle: Klucel (hydroxypropylcellulose) (HPC)
[9] = dose: 100.0 mg/kg/injection, schedule: Q01DX009 (ip), vehicle: Klucel (hydroxypropylcellulose) (HPC)
[10] = dose: 200.0 mg/kg/injection, schedule: Q01DX009 (ip), vehicle: Klucel (hydroxypropylcellulose) (HPC)
[11] = dose: 50.0 mg/kg/injection, schedule: Q01DX009 (ip), vehicle: saline
[12] = dose: 100.0 mg/kg/injection, schedule: Q01DX009 (ip), vehicle: saline with Tween-80
[13] = dose: 200.0 mg/kg/injection, schedule: Q01DX009 (ip), vehicle: saline with Tween-80
[14] = dose: 400.0 mg/kg/injection, schedule: Q01DX009 (ip), vehicle: saline with Tween-80
[15] = dose: 12.5 mg/kg/injection, schedule: Q01DX009 (ip), vehicle: saline with Tween-80
[16] = dose: 50.0 mg/kg/injection, schedule: Q01DX005 (ip), vehicle: Klucel (hydroxypropylcellulose) (HPC)
[17] = dose: 100.0 mg/kg/injection, schedule: Q01DX005 (ip), vehicle: Klucel (hydroxypropylcellulose) (HPC)
[18] = dose: 200.0 mg/kg/injection, schedule: Q01DX005 (ip), vehicle: Klucel (hydroxypropylcellulose) (HPC)

SMILES: CC(=NCCCCN=C(C)c1cc(O)cc(Br)c1O)c1cc(O)cc(Br)c1O.[Co]
- T/C [1]: 90 % of control
- T/C (dose: 120.0 mg/kg/injection, schedule: Q01DX005 (ip), vehicle: saline with Tween-80): 98 % of control
- T/C (dose: 240.0 mg/kg/injection, schedule: Q01DX005 (ip), vehicle: saline with Tween-80): 94 % of control

SMILES: C/C=C/c1ccccc1N/N=C(\Cl)C(=O)OCC
- T/C (dose: 3.75 mg/kg/injection, schedule: Q01DX005 (ip), vehicle: saline with Tween-80): 107 % of control
- T/C [2]: 99 % of control
- T/C (dose: 12.5 mg/kg/injection, schedule: Q01DX005 (ip), vehicle: saline with Tween-80): 99 % of control
- T/C [3]: 119 % of control
- T/C (dose: 25.0 mg/kg/injection, schedule: Q01DX005 (ip), vehicle: saline with Tween-80): 106 % of control
- T/C [4]: 118 % of control
- T/C [5]: 117 % of control

SMILES: O=C1C2C3C=CC(C3)C2C(=O)C2(CO)OC12 (stereo not drawn)
- T/C (dose: 62.5 mg/kg/injection, schedule: Q04DX002 (ip), vehicle: saline): 97 % of control
- T/C (dose: 125.0 mg/kg/injection, schedule: Q04DX002 (ip), vehicle: saline): 95 % of control
- T/C (dose: 250.0 mg/kg/injection, schedule: Q04DX002 (ip), vehicle: saline): 97 % of control

SMILES: Nc1cc(C(F)(F)F)cc(N)c1N
- T/C [4]: 104 % of control
- T/C [6]: 94 % of control
- T/C [7]: 99 % of control

SMILES: O=C1C=CC(=Nc2ccc(N(CCCl)CCCl)cc2)C=C1
- T/C [8]: 89 % of control
- T/C [9]: 89 % of control

SMILES: Cc1nc2c([N+](=O)[O-])cccc2c2ccccc12
- T/C (dose: 100.0 mg/kg/injection, schedule: Q04DX002 (ip), vehicle: Klucel (hydroxypropylcellulose) (HPC)): 94 % of control
- T/C (dose: 200.0 mg/kg/injection, schedule: Q04DX002 (ip), vehicle: Klucel (hydroxypropylcellulose) (HPC)): 89 % of control
- T/C (dose: 400.0 mg/kg/injection, schedule: Q04DX002 (ip), vehicle: Klucel (hydroxypropylcellulose) (HPC)): 98 % of control

SMILES: CN(CC#N)Cc1ccccc1
- T/C [2]: 95 % of control
- T/C [3]: 96 % of control
- T/C (dose: 30.0 mg/kg/injection, schedule: Q01DX005 (ip), vehicle: saline with Tween-80): 97 % of control
- T/C [1]: 103 % of control

SMILES: CN(C)c1nc(O)c(N=O)c(=O)[nH]1
- T/C (dose: 50.0 mg/kg/injection, schedule: Q04DX002 (ip), vehicle: suspension in saline): 100 % of control
- T/C (dose: 100.0 mg/kg/injection, schedule: Q04DX002 (ip), vehicle: suspension in saline): 107 % of control
- T/C (dose: 200.0 mg/kg/injection, schedule: Q04DX002 (ip), vehicle: suspension in saline): 108 % of control

SMILES: CC1(C)C=C(C(=O)ON2C(=O)CCC2=O)C(C)(C)N1O
- T/C [8]: 113 % of control
- T/C [9]: 106 % of control

SMILES: CCCCCCCCNC(=O)OCc1c2ccccc2cc2ccccc12
- T/C [8]: 98 % of control
- T/C [9]: 101 % of control
- T/C [10]: 98 % of control

SMILES: C1=NCc2nnn(Cc3ccccc3)c2N1
- T/C [8]: 102 % of control
- T/C [9]: 98 % of control
- T/C [10]: 108 % of control

SMILES: Nc1ccc2c(NCCCCCCNc3c4ccccc4nc4cc(N)ccc34)c3ccccc3nc2c1
- T/C (dose: 0.63 mg/kg/injection, schedule: Q01DX009 (ip), vehicle: other): 122 % of control

SMILES: CN(C)CCCNC1=C(Cl)C(=O)C(NCCCN(C)C)=C(Cl)C1=O
- T/C (dose: 6.25 mg/kg/injection, schedule: Q01DX009 (ip), vehicle: saline): 91 % of control
- T/C (dose: 12.5 mg/kg/injection, schedule: Q01DX009 (ip), vehicle: saline): 94 % of control
- T/C (dose: 25.0 mg/kg/injection, schedule: Q01DX009 (ip), vehicle: saline): 111 % of control
- T/C [11]: 89 % of control

SMILES: CCCCOC(=O)C1(N)CCCC1
- T/C (dose: 100.0 mg/kg/injection, schedule: Q04DX003 (ip), vehicle: saline): 100 % of control
- T/C (dose: 200.0 mg/kg/injection, schedule: Q04DX003 (ip), vehicle: saline): 109 % of control

SMILES: Oc1ccc2ccccc2c1/C=N\Sc1ccc(Cl)cc1
- T/C [5]: 90 % of control
- T/C [12]: 91 % of control
- T/C [13]: 96 % of control

SMILES: COC1=C(N)C(=O)c2nc(-c3ccccc3N)ccc2C1=O
- T/C [11]: 121 % of control
- T/C (dose: 100.0 mg/kg/injection, schedule: Q01DX009 (ip), vehicle: saline): 120 % of control

SMILES: Nc1nc(N)c2cnnn2n1
- T/C [4]: 95 % of control
- T/C [6]: 102 % of control
- T/C [7]: 110 % of control

SMILES: Nc1ccc2[nH]c(=S)[nH]c2c1
- T/C (dose: 10.0 mg/kg/injection, schedule: Q01DX009 (ip), vehicle: saline with Tween-80): 100 % of control
- T/C (dose: 20.0 mg/kg/injection, schedule: Q01DX009 (ip), vehicle: saline with Tween-80): 104 % of control
- T/C (dose: 40.0 mg/kg/injection, schedule: Q01DX009 (ip), vehicle: saline with Tween-80): 100 % of control
- T/C [12]: 95 % of control
- T/C [14]: 95 % of control

SMILES: CC1=NN(C(=O)c2ccc(Cl)cc2)C(=O)C1N=Nc1ccc(S(=O)(=O)Nc2nc(C)cc(C)n2)cc1 (stereo not drawn)
- T/C (dose: 100.0 mg/kg/injection, schedule: Q01DX001 (ip), vehicle: saline with Tween-80): 92 % of control
- T/C (dose: 200.0 mg/kg/injection, schedule: Q01DX001 (ip), vehicle: saline with Tween-80): 86 % of control
- T/C (dose: 400.0 mg/kg/injection, schedule: Q01DX001 (ip), vehicle: saline with Tween-80): 89 % of control

SMILES: NC(C(=O)O)c1ccc(CBr)cc1 (stereo not drawn)
- T/C (dose: 25.0 mg/kg/injection, schedule: Q04DX003 (ip), vehicle: saline with Tween-80): 151 % of control
- T/C (dose: 100.0 mg/kg/injection, schedule: Q04DX003 (ip), vehicle: saline with Tween-80): 151 % of control and 165 % of control

SMILES: Cc1cccc(C)c1NC(=O)NNC(N)=S
- T/C [5]: 97 % of control

SMILES: CN1CCc2c3n(c4ccccc24)C(=O)CCC31 (stereo not drawn)
- T/C (dose: 6.25 mg/kg/injection, schedule: Q01DX009 (ip), vehicle: saline with Tween-80): 120 % of control
- T/C [15]: 120 % of control
- T/C (dose: 25.0 mg/kg/injection, schedule: Q01DX009 (ip), vehicle: saline with Tween-80): 120 % of control

SMILES: CCOc1cccc(/C=N/NC(=O)C(=O)Nc2ccc(Cl)c([N+](=O)[O-])c2)c1O
- T/C [4]: 100 % of control
- T/C [6]: 89 % of control
- T/C [7]: 90 % of control

SMILES: CCOC(=O)C(Cc1ccccc1[N+](=O)[O-])(NC(C)=O)C(=O)OCC
- T/C [5]: 94 % of control
- T/C [12]: 93 % of control
- T/C [13]: 100 % of control
- T/C [14]: 103 % of control

SMILES: Cc1ccc(OP2(=O)NC3CCCCC3N2)cc1 (stereo not drawn)
- T/C [16]: 99 % of control
- T/C [17]: 93 % of control
- T/C [18]: 96 % of control

SMILES: NOCc1cccc(CON)c1
- T/C [5]: 91 % of control

SMILES: CCOc1c(N=Nc2ccccc2C)c(C)nn1C(=S)SC
- T/C (dose: 60.0 mg/kg/injection, schedule: Q01DX005 (ip), vehicle: Klucel + Tween-80): 95 % of control
- T/C (dose: 120.0 mg/kg/injection, schedule: Q01DX005 (ip), vehicle: Klucel + Tween-80): 92 % of control

SMILES: O=C1C=CC(=O)C(C2OC(=O)C(Br)=C2Br)=C1 (stereo not drawn)
- T/C (dose: 50.0 mg/kg/injection, schedule: Q01DX005 (ip), vehicle: distilled water + Tween-80): 114 % of control
- T/C (dose: 100.0 mg/kg/injection, schedule: Q01DX005 (ip), vehicle: distilled water + Tween-80): 115 % of control

SMILES: COc1cc2c(cc1OC)NCC1COc3c(ccc(OC)c3OC)C1=N2 (stereo not drawn)
- T/C [4]: 96 % of control
- T/C [6]: 88 % of control
- T/C [7]: 92 % of control

SMILES: CC(=O)CC(=O)c1ccccc1.CC(=O)CC(=O)c1ccccc1.[Ni]
- T/C (dose: 3.0 mg/kg/injection, schedule: Q01DX009 (ip), vehicle: saline with Tween-80): 106 % of control
- T/C (dose: 6.0 mg/kg/injection, schedule: Q01DX009 (ip), vehicle: saline with Tween-80): 98 % of control
- T/C (dose: 12.0 mg/kg/injection, schedule: Q01DX009 (ip), vehicle: saline with Tween-80): 99 % of control
- T/C [15]: 91 % of control
- T/C (dose: 24.0 mg/kg/injection, schedule: Q01DX009 (ip), vehicle: saline with Tween-80): 99 % of control

SMILES: O=[N+]([O-])/C=C/c1cc2c(cc1Cl)OCO2
- T/C [16]: 107 % of control
- T/C [17]: 111 % of control
- T/C [18]: 95 % of control

SMILES: NNC(=O)c1ccccc1N
- T/C (dose: 25.0 mg/kg/injection, schedule: Q01DX009 (ip), vehicle: water): 96 % of control
- T/C (dose: 50.0 mg/kg/injection, schedule: Q01DX009 (ip), vehicle: water): 96 % of control
